The source of these data is ChEMBL document CHEMBL2424571, “Synthesis, molecular docking studies, and in vitro screening of barbiturates/thiobarbiturates as antibacterial and cholinesterase inhibitors” (Med Chem Res, 2013).

In experiment [1] the target is T1, Acetylcholinesterase (Homo sapiens, UniProt P22303). As to the kind of experiment: Inhibition of AChE (unknown origin) using acetyl thiocholine iodide as substrate at 0.25 mM after 30 mins by Ellman's method.
Experiment [2] deals with T2, Cholinesterase (Homo sapiens, UniProt P06276). Put plainly: Inhibition of BChE (unknown origin) using butyryl thiocholine iodide as substrate at 0.25 mM after 30 mins by Ellman's method. A general note: In Ellman's method for cholinesterases, released thiocholine reacts with DTNB.
Experiment [3] concerns the target T2, Cholinesterase. As to the kind of experiment: Inhibition of BChE (unknown origin) using butyryl thiocholine iodide as substrate after 30 mins by Ellman's method.
In experiment [4] the target is T1, Acetylcholinesterase. Put plainly: Inhibition of AChE (unknown origin) using acetyl thiocholine iodide as substrate after 30 mins by Ellman's method.
For experiment [5], the system named is Staphylococcus aureus. Put plainly: Antibacterial activity against Staphylococcus aureus after 18 to 24 hrs by Micro-titer assay. Format: functional.
Experiment [6] has as its system Pseudomonas aeruginosa. As to the kind of experiment: Antibacterial activity against Pseudomonas aeruginosa after 18 to 24 hrs by Micro-titer assay. Format: functional.
Experiment [7] deals with Escherichia coli. Put plainly: Antibacterial activity against Escherichia coli 5604 at 1 mg/ml after 24 hrs by agar-well diffusion method. Format: functional, organism-based. A general note: In agar diffusion tests the substance spreads into inoculated agar from a disc or well.
The test system of experiment [8] is Escherichia coli. Put plainly: Antibacterial activity against Escherichia coli DH5[alpha] at 1 mg/ml after 24 hrs by agar-well diffusion method. Format: functional. As to conditions: read-out: IZ.
For the next experiment, the system named is Salmonella typhi. Put plainly: Antibacterial activity against Salmonella typhi at 1 mg/ml after 24 hrs by agar-well diffusion method. Format: functional, organism-based. The note with it: Salmonella enterica subsp. enterica serovar Typhi.
In experiment [9] the test system is Escherichia coli. As to the kind of experiment: Antibacterial activity against Escherichia coli DG2 at 1 mg/ml after 24 hrs by agar-well diffusion method. Format: functional, organism-based.
For experiment [10], the system named is Escherichia coli. Put plainly: Antibacterial activity against Escherichia coli DH5[alpha] after 18 to 24 hrs by Micro-titer assay. Format: functional.
A further experiment relates to Vibrio cholerae. Put plainly: Antibacterial activity against Vibrio cholerae at 1 mg/ml after 24 hrs by agar-well diffusion method. Format: functional, organism-based.
In experiment [11] the test system is Staphylococcus aureus. Put plainly: Antibacterial activity against Staphylococcus aureus at 1 mg/ml after 24 hrs by agar-well diffusion method. Format: functional. As to conditions: read-out: IZ.
The test system of experiment [12] is Pseudomonas aeruginosa. Put plainly: Antibacterial activity against Pseudomonas aeruginosa at 1 mg/ml after 24 hrs by agar-well diffusion method. Format: functional. As to conditions: for zone of inhibition at 1000 µg/mL: read-out: IZ.
The target in experiment [13] is T2, Cholinesterase. Put plainly: Inhibition of BChE (unknown origin) using butyryl thiocholine iodide as substrate at 0.125 mM after 30 mins by Ellman's method.
Experiment [14] addresses T1, Acetylcholinesterase. Put plainly: Inhibition of AChE (unknown origin) using acetyl thiocholine iodide as substrate at 0.125 mM after 30 mins by Ellman's method.
For experiment [15], the target named is T2, Cholinesterase. As to the kind of experiment: Inhibition of BChE (unknown origin) using butyryl thiocholine iodide as substrate at 0.5 mM after 30 mins by Ellman's method.
The target of experiment [16] is T1, Acetylcholinesterase. Put plainly: Inhibition of AChE (unknown origin) using acetyl thiocholine iodide as substrate at 0.5 mM after 30 mins by Ellman's method.

The structures appear in SMILES notation. ≈ marks a conversion by molar mass, not a printed value. Calls of active or inactive are those of the source. The calls are words filed in the database; no cut-off is given here.

T1 sequence (P22303 whole entry): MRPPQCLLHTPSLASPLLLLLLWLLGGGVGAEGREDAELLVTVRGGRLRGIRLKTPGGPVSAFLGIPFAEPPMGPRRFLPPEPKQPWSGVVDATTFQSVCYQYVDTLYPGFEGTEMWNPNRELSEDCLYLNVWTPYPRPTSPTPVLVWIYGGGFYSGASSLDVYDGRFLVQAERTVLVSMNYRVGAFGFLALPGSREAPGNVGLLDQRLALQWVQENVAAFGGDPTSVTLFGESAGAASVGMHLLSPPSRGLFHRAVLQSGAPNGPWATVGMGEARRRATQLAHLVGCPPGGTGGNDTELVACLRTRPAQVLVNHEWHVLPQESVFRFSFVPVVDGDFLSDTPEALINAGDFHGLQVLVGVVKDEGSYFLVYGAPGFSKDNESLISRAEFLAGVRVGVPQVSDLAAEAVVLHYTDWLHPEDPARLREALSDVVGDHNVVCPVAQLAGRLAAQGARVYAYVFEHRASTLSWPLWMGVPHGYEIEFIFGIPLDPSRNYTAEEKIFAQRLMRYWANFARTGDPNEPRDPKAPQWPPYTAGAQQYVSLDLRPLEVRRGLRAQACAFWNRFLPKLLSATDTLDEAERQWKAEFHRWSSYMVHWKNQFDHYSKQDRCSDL
T2 sequence (P06276 whole entry): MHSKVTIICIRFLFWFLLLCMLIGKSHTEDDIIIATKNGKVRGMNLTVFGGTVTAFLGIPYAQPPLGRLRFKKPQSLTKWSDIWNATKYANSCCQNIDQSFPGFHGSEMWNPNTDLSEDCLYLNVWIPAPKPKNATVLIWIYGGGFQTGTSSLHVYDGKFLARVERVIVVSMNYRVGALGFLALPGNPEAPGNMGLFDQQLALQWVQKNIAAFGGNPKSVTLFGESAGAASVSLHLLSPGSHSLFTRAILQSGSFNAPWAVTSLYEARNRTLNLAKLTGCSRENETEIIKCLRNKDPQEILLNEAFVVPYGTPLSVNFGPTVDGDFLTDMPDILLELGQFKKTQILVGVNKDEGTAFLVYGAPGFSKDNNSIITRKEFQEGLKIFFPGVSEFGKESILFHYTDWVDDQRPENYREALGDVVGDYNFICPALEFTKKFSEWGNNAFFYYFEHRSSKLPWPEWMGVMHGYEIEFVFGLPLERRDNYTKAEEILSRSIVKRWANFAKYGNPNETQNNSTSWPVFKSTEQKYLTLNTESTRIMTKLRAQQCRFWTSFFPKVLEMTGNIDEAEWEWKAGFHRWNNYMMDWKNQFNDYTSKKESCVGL

In the case of `N#Cc1ccc(NC(=S)NNC=C2C(=O)NC(=O)NC2=O)cc1`, the inhibition came out at 11.4% against Acetylcholinesterase [1] and 66.8% against Cholinesterase [2]. The IC50 against Cholinesterase [3] was determined as 231.61 µmol.

`O=C1NC(=S)NC(=O)C1=CNNC(=S)Nc1ccc(Br)cc1`: the inhibition came out at 80.4% at Acetylcholinesterase [1] and 84.5% against Cholinesterase [2]. The IC50 is 79.21 µmol against Acetylcholinesterase [4] and 68.41 µmol at Cholinesterase [3].

`O=C1NC(=S)NC(=O)C1=CNNC(=S)Nc1ccc(Cl)cc1`: the minimal inhibitory concentration (MIC) in the experiment on Staphylococcus aureus [5] came to 100 µg/mL (≈ 281 µM); with Pseudomonas aeruginosa [6], 400 µg/mL (≈ 1120 µM); against Escherichia coli [10] it was 200 µg/mL (≈ 562 µM). For the same compound, the figures for the inhibition on Acetylcholinesterase [1] and against Cholinesterase [2] were 62% and 81.6%, respectively. Besides, the “inhibition zone (IZ)” value with Escherichia coli [7], in the experiment on Salmonella typhi, with Escherichia coli [9], in the experiment on Vibrio cholerae and in the experiment with Pseudomonas aeruginosa [12] was “inactive” each time. Also, the zone of inhibition at 1000 µg/mL in the experiment with Escherichia coli [8] came out at 14 mm; in the experiment with Staphylococcus aureus [11], 15 mm. In addition, the IC50 against Acetylcholinesterase [4] was 121.11 µmol; at Cholinesterase [3], 75.41 µmol.

For `O=C1NC(=S)NC(=O)C1=CNNC(=S)Nc1ccc(F)cc1`, the inhibition on Acetylcholinesterase [1] was found to be 86.9%; against Cholinesterase [2], 88.8%. Further, the IC50 against Acetylcholinesterase [4] was 78.41 µmol; against Cholinesterase [3], 57.81 µmol.

Consider `CNC(=O)Oc1ccc2c(c1)[C@]1(C)CCN(C)[C@@H]1N2C`, for which the inhibition against Acetylcholinesterase [1] and on Cholinesterase [2] was 92.5% each time.

`O=C1NC(=O)C(=CNNC(=O)Nc2ccccc2)C(=O)N1`: the inhibition came out at 79.2% at Cholinesterase [13] and 39.6% on Acetylcholinesterase [14]. The IC50 against Cholinesterase [3] was found to be 38.51 µmol.

Turning to `O=C1NC(=S)NC(=O)C1=CNNC(=S)Nc1ccc(C(F)(F)F)cc1`, the results for the inhibition against Acetylcholinesterase [1] and against Cholinesterase [2] were 75.6% and 78.2%, respectively. The IC50 was found to be 99.41 µmol against Acetylcholinesterase [4] and 8.11 µmol at Cholinesterase [3].

Consider `O=C(N[C@H](CO)[C@H](O)c1ccc([N+](=O)[O-])cc1)C(Cl)Cl` [CHLORAMPHENICOL], for which the MIC in the experiment with Staphylococcus aureus [5] is less than 0.78 µg/mL; with Pseudomonas aeruginosa [6], 1.56 µg/mL (≈ 4.83 µM); against Escherichia coli [10], 1.56 µg/mL (≈ 4.83 µM). For the same compound, the “inhibition zone (IZ)” value in the experiment on Escherichia coli [7], in the experiment on Salmonella typhi, in the experiment with Escherichia coli [9] and with Vibrio cholerae was “inactive” in each case. Also, the zone of inhibition at 1000 µg/mL with Escherichia coli [8], with Staphylococcus aureus [11] and in the experiment with Pseudomonas aeruginosa [12] was 25 mm throughout.

Consider `O=C1NC(=O)C(=CNNC(=S)Nc2cccc(C(F)(F)F)c2)C(=O)N1`, for which the inhibition was 75.9% against Cholinesterase [15] and 83.3% at Acetylcholinesterase [16]. The IC50 at Acetylcholinesterase [4] is 40.78 µmol; against Cholinesterase [3], 136.91 µmol.

Turning to `NC(=S)NNC=C1C(=O)NC(=O)NC1=O`, the inhibition came out at 65.8% against Acetylcholinesterase [1] and 87.5% on Cholinesterase [2]. Moreover, the IC50 came out at 119.11 µmol against Acetylcholinesterase [4] and 56.51 µmol at Cholinesterase [3].

For `O=C1NC(=S)NC(=O)C1=CNNC(=S)Nc1ccccc1`, the inhibition was found to be 73.2% against Acetylcholinesterase [1] and 83.2% against Cholinesterase [2]. For the same compound, the IC50 at Acetylcholinesterase [4] is 115.11 µmol; on Cholinesterase [3], 57.11 µmol.

With `Cc1cccc(Cl)c1NC(=S)NNC=C1C(=O)NC(=O)NC1=O`, the inhibition on Cholinesterase [15] stood at 75.8%; against Acetylcholinesterase [16] it was 49.4%. For the same compound, the IC50 against Cholinesterase [3] was 8.81 µmol.

On to `COc1ccc(NC(=S)NNC=C2C(=O)NC(=S)NC2=O)cc1`, for which the inhibition was 59.1% against Acetylcholinesterase [1] and 85.4% on Cholinesterase [2]. The values for the IC50 at Acetylcholinesterase [4] and on Cholinesterase [3] were 206.31 µmol and 56.81 µmol, respectively.

Regarding `CC(=O)NC=C1C(=O)NC(=O)NC1=O`, the MIC was 100 µg/mL (≈ 507 µM) against Staphylococcus aureus [5], 200 µg/mL (≈ 1010 µM) in the experiment with Pseudomonas aeruginosa [6] and 100 µg/mL (≈ 507 µM) against Escherichia coli [10]. Besides, the inhibition on Acetylcholinesterase [1] was 77.7%; on Cholinesterase [2] it was 88.3%. In addition, the “inhibition zone (IZ)” value in the experiment on Escherichia coli [7], in the experiment on Salmonella typhi, in the experiment with Escherichia coli [9] and with Vibrio cholerae was “inactive” in each case. The zone of inhibition at 1000 µg/mL was found to be 15 mm in the experiment on Escherichia coli [8], 18 mm in the experiment with Staphylococcus aureus [11] and 18 mm with Pseudomonas aeruginosa [12]. Besides, the values for the IC50 against Acetylcholinesterase [4] and on Cholinesterase [3] were 90.91 µmol and 116.61 µmol, respectively.

For the compound `O=C(NNC=C1C(=O)NC(=S)NC1=O)Nc1ccccc1`, the inhibition came to 85.1% on Cholinesterase [13] and 66.8% on Acetylcholinesterase [14]. Further, the IC50 amounted to 74.21 µmol against Acetylcholinesterase [4] and 3.31 µmol at Cholinesterase [3].

As a reminder, the inhibition is the share of the control response that was lost under treatment. A low value points to little suppression. A word on the MIC: it is the lowest concentration that inhibits growth of the organism. A high value points to a need for much substance.
